Values quoted from earlier work in patent US9255156B2, “Immunogenic synthetic glycoconjugate for the immunotherapy of melanoma” (Azienda Ospedaliero-Universitaria Careggi, priority 2009, dated 2016).

- stability under physiological conditions / hydrolytic stability: unstable under physiological conditions
Substance: GM3 lactone [GM3 lactone 2]
